A short description of data set [1]: DPPH-radical-scavenging assay. Conditions: 30 min, absorbance at 515 nm; mean ± SD, three independent experiments; read-out: Radical-scavenging activity against DPPH, IC50. On the procedure:
The radical-scavenging activities of compounds 1–6 were determined using DPPH (a stable free radical), employing the method of microdilution in 96-well microplates described by Zhang et al. and Yamaguchi et al., with some modifications. The assays were performed in triplicate, using caffeic acid as a standard compound and a DPPH solution in EtOH (200 µM) as a negative control. Solutions of samples in EtOH at 200 µM were serially diluted to 100, 50, 25, 12.5, and 6.25 µM. Each solution (100 µL) was mixed with 100 µL of DPPH solution. The samples were allowed to stand at room temperature in the dark for 30 min, after which their absorbances were recorded at 515 nm. The ability of test materials to scavenge DPPH radicals was calculated as follows: DPPH scavenging effect (%) = 100 (Acontrol − Asample)/Acontrol. Radical-scavenging activities were assessed on the basis of their IC50 values determined by linear regression.

The next data set deals with NCI/ADR-RES. Put plainly: SRB cytotoxicity assay, NCI/ADR-RES ovary carcinoma cells, multidrug-resistant phenotype. Conditions: Homo sapiens, read-out: Cytotoxicity IC50, NCI/ADR-RES.
Another data set relates to MCF-7. Put plainly: SRB cytotoxicity assay, MCF-7 breast carcinoma cells. Conditions: Homo sapiens, MCF7, read-out: Cytotoxicity IC50, MCF-7.
A further data set has as its system UACC-62. Put plainly: SRB cytotoxicity assay, UACC-62 melanoma cells. Particulars: for IC50: Homo sapiens, UACC-62, read-out: Cytotoxicity IC50, UACC-62.
A further data set has as its system Hep2. Put plainly: SRB cytotoxicity assay, Hep2 larynx carcinoma cells. The data set is classed as cell-based. Conditions: Homo sapiens, HEp-2, mean ± SD, three independent experiments.
The next data set concerns 786-0. Nature of the data set: SRB cytotoxicity assay, 786-0 kidney carcinoma cells. Particulars: Homo sapiens, 786-0, read-out: Cytotoxicity IC50, 786-0.
Data set [2] is described as follows: SRB cytotoxicity assay, VERO nonneoplastic cells. The data set is classed as cell-based, monkey. Particulars: monkey, VERO (monkey kidney) nonneoplastic cells; at 2.5 µg mL^−1. From the text:
(§1) In addition, 4 inhibited the proliferation of UACC-62 and VERO cells in a dose-dependent manner.

The test system of a further data set is VERO cells. Put plainly: SRB cytotoxicity assay, VERO nonneoplastic cells. In kind it is cell-based, monkey.
Excerpt: as §1

Where [3] appears, read: 0.25, 2.5 and 25 µg mL^−1, points above zero in growth curves (Figure 2).

Procedure for 786-0: (§2) To this end, a sulforhodamine B (SRB; purity ≥ 97%; Sigma, St. Louis, MO, USA) assay was performed, as described elsewhere [53, 54]. […] IC50 values were calculated from the differences in absorbance readings at 540 nm in untreated (negative control) and treated cells on a SpectraMax 190 microplate reader (Molecular Devices, San Jose, CA, USA) [53] through nonlinear regression analysis, using Origin 6.0 software (OriginLab, Northampton, MA, USA), and growth percentages were calculated as described elsewhere [53]. The data presented are the mean ± standard deviation of at least three independent cell preparations made in triplicate.
Procedure for MCF-7: as §2
Procedure for NCI/ADR-RES: as §2
Procedure for UACC-62: as §2

Regarding `COc1cc2c(cc1O)-c1c(cc(O)c(OC)c1OC)CC2` [Compound 5, 2,6-Dihydroxy-3,4,7-trimethoxy-9,10-dihydrophenanthrene], the IC50 in data set [1] was found to be 32.9 ± 0.3 µM; with NCI/ADR-RES, 212 ± 14.1 µM; with MCF-7, 42 ± 9.33 µM; with UACC-62, 222 ± 3.04 µM; in the data set with Hep2, 223 ± 2.81 µM; in the data set on 786-0, 199 ± 6.75 µM.

Regarding `COc1cc(CCc2cc(OC)c(OC)c(Oc3cc(OC)c(OC)c(OC)c3)c2)ccc1O` [Compound 1, 4′-Hydroxy-3,3′,4-trimethoxy-5-(3,4,5-trimethoxyphenoxy)-bibenzyl], the IC50 is 56.5 ± 0.3 µM in data set [1]; 32.1 ± 4.31 µM with NCI/ADR-RES; 72.7 ± 4.87 µM in the data set with MCF-7; 218 ± 2.52 µM with Hep2; 113 ± 2.89 µM with 786-0.

As for `O=C(O)/C=C/c1ccc(O)c(O)c1` [Caffeic acid, caffeic acid, reference compound], in data set [1], the IC50 worked out at 10.9 ± 0.1 µM.

Regarding `COc1cc2ccc3cc(O)c(OC)c(OC)c3c2cc1O` [Compound 3, 2,6-Dihydroxy-3,4,7-trimethoxyphenanthrene], the IC50 was 45.6 ± 0.3 µM in data set [1]; 117 ± 2.66 µM in the data set on NCI/ADR-RES; 226 ± 5.09 µM in the data set with MCF-7; 247 ± 10.3 µM with UACC-62; 64.3 ± 9.62 µM with 786-0.

For the compound `COc1cc2c(cc1O)CCc1cc(O)cc(OC)c1-2` [Compound 4, 2,7-dihydroxy-4,6-dimethoxy-9,10-dihydrophenanthrene], the IC50 in data set [1] is 55.6 ± 0.4 µM; in the data set on NCI/ADR-RES, 58.8 ± 2.33 µM; with MCF-7 it was 47 ± 5.55 µM; in the data set on UACC-62 it was 2.59 ± 0.11 µM; in the data set with Hep2 it was 208 ± 17.1 µM; in the data set with 786-0, 57 ± 9.29 µM. Besides, in the data set on VERO cells (Primates, Vero, SRB assay, read-out: IC50 on nontumor mammalian VERO cells), the IC50 is 65.1 ± 4.51 µM. In the data set on UACC-62 (setting [3]), the “Effect on UACC-62 cell growth” value is reported as “cytostatic (growth inhibition) effect”. The “Concentration from which a cytocidal (cell death) effect is seen on UACC-62 cells” value in the data set with UACC-62 (points below zero in growth curves (Figure 2)) is not below 2.5 µg/mL. The compound also registered a viability at 2.5 µg mL^−1 in data set [2] of approximately 100%. For the same compound, the “Effect on VERO cell growth” value in the data set on VERO cells (setting [3]) is given as “cytostatic (growth inhibition) effect”.

On to `COc1cc2c(ccc3cc(O)cc(OC)c32)cc1O` [Compound 2, 2,7-Dihydroxy-4,6-dimethoxyphenanthrene], for which the IC50 is 20.4 ± 0.3 µM in data set [1]; 84 ± 5.4 µM in the data set on NCI/ADR-RES; 118 ± 9.29 µM in the data set with MCF-7; more than 250 µM in the data set on UACC-62; more than 250 µM in the data set on Hep2; 73.3 ± 7.7 µM with 786-0.

As to `COc1cc2c(cc1O)-c1c(cc(O)cc1OC)CC2` [Compound 6, 2,6-dihydroxy-4,7-dimethoxy-9,10-dihydrophenanthrene], the IC50 worked out at 17.7 ± 0.3 µM in data set [1]; 303 ± 12.6 µM in the data set on NCI/ADR-RES; 160 ± 8.21 µM in the data set with MCF-7; 268 ± 13.8 µM with UACC-62; 547.58 ± 0.11 µM in the data set on Hep2; 257 ± 6.51 µM in the data set on 786-0.

For the origin of these results see article PMC7397156, “Cytotoxic Phenanthrene, Dihydrophenanthrene, and Dihydrostilbene Derivatives and Other Aromatic Compounds from Combretum laxum” (Molecules, 2020).
